Assay results: US20240408065A1, “CYANO COMPOUND, AND PREPARATION METHOD THEREFOR AND USE THEREOF” (SHANGHAI INSTITUTE OF MATERIA MEDICA, CHINESE ACADEMY OF …, priority 2021, published 2024)
Where “and” joins values, the source holds several entries; their conditions need not be identical. Equal entries are not always repeated.

Legend:
SARS-CoV-2 3CLpro = molecular target: T1, SARS-CoV-2 3CLpro (Severe acute respiratory syndrome coronavirus 2, UniProt P0DTD1); assay: biochemical; conditions: protease 30 nM, substrate 20 μM
T1 construct: The SARS-CoV-2 3CL^pro protease and different concentrations of the compounds were added to a 96-well plate

SARS-CoV-2 delta strain = conditions: mouse, in vivo
[1] = test system: 47 safety-related targets; conditions: read-out: ECo on 47 safety-related targets
Source text: For the 78 tests related to the 47 safe targets, the experimental methods used include: cAMP assay, calcium flux assay, hormone nuclear receptor assay, kinase binding assay, enzyme activity assay, neurotransmitter transporter assay, ion channel assay, and transporter assay.

[2] = cynomolgus monkey, in vivo
in vitro = conditions: African green monkey
Procedure: In the cytotoxicity test, Vero E6 cells were digested and placed in a culture medium (90% DMEM, 10% fetal bovine serum), inoculated into a 96-well plate at 20000 cells per well, and cultured overnight. The compound to be tested was dissolved in DMSO to prepare a 40 mM stock solution, and further serially diluted with a culture medium or a culture medium containing 0.5 μM Pgp inhibitor to obtain the concentration required for the test.

[3] = test system: SARS-CoV-2 B.1.351 strain; assay: microbe, parasite or virus in culture; conditions: Severe acute respiratory syndrome coronavirus 2, Vero C1008, 24 h
[4] = test system: SARS-CoV-2 Omicron strain (B.1.1.529); assay: microbe, parasite or virus in culture; conditions: Severe acute respiratory syndrome coronavirus 2, Vero C1008

Structure (SMILES)	IC50 (SARS-CoV-2 3CLpro) [µM]	other results
N#C[C@H](C[C@@H]1CCNC1=O)NC(=O)[C@@H]1CC2(CN1C(=O)[C@@H](NC(=O)C(F)(F)F)C1CCCC1)SCCS2 [Compound 14]	< 0.1	–
CC(C)(C)[C@H](NC(=O)C(F)(F)C(F)(F)F)C(=O)N1CC2(C[C@H]1C(=O)N[C@H](C#N)C[C@@H]1CCCNC1=O)SCCS2 [Compound 22]	< 0.1	–
CC(C)(C)[C@H](NC(=O)c1ccccc1)C(=O)N1CC2(C[C@H]1C(=O)N[C@H](C#N)C[C@@H]1CCNC1=O)SCCS2 [Compound 8]	1 to 10	–
CC(C)(C)[C@H](NC(=O)c1c(F)c(F)c(F)c(F)c1F)C(=O)N1CC2(C[C@H]1C(=O)N[C@H](C#N)C[C@@H]1CCNC1=O)SCCS2 [Compound 20]	0.1 to 1	–
CC(C)(C)[C@H](NC(=O)C(F)(F)C(F)(F)F)C(=O)N1CC2(C[C@H]1C(=O)N[C@H](C#N)C[C@@H]1CCNC1=O)SCCS2 [Compound 13]	< 0.1	–
CC(C)(C)[C@H](NC(=O)C(F)(F)F)C(=O)N1CC2(C[C@H]1C(=O)N[C@H](C#N)C[C@@H]1CCNC1=O)SCCS2 [Compound 2]	–	Viral load, brain tissue, Day 2 (SARS-CoV-2 delta strain): 0.77 ± 0.20 log10 copies/mg and 1.04 ± 0.24 log10 copies/mg; Viral load, lung tissue, Day 4 (SARS-CoV-2 delta strain): 7.88 ± 0.74 log10 copies/g and 7.48 ± 0.63 log10 copies/g; body weight of the mice (SARS-CoV-2 delta strain): did not decrease significantly; decrease of virus copy number in the lung compared with the model group (SARS-CoV-2 delta strain): 2.4 log 10 copies/g; decrease of virus titer in the lung compared with the model group (SARS-CoV-2 delta strain): more than 3 log 10 PFU/g; effect on virus titer in the lung (SARS-CoV-2 delta strain): sustained inhibitory effect; histopathological analysis of the lung (SARS-CoV-2 delta strain): significantly improved lung damage; virus titer in the brain (plaque test) (SARS-CoV-2 delta strain): no virus titer was determined; virus titer in the lung (plaque test) (SARS-CoV-2 delta strain): no titer was detected; EC50 [1]: > 100 µM; arrhythmia [2]: no arrhythmia related to the test product; change in the cardiovascular system [2]: no change in the cardiovascular system related to the test product; changes in ECG parameters or blood pressure [2]: no changes in ECG parameters or blood pressure related to the test product; CC50 (in vitro): > 500 µM; EC50 [3]: 0.73 µM; IC50 [4]: 0.12 µM
COC(=O)N[C@H](C(=O)N1CC2(C[C@H]1C(=O)N[C@H](C#N)C[C@@H]1CCNC1=O)SCCS2)C(C)(C)C [Compound 6]	0.1 to 1	–
CC(C)(C)[C@H](NS(=O)(=O)c1ccccc1)C(=O)N1CC2(C[C@H]1C(=O)N[C@H](C#N)C[C@@H]1CCNC1=O)SCCS2 [Compound 17]	1 to 10	–
CC(C)(C)[C@H](NC(=O)C1CC1)C(=O)N1CC2(C[C@H]1C(=O)N[C@H](C#N)C[C@@H]1CCNC1=O)SCCS2 [Compound 4]	< 0.1	–
N#C[C@H](C[C@@H]1CCNC1=O)NC(=O)[C@@H]1CC2(CN1C(=O)[C@@H](NC(=O)C1(F)CC1)C1CCCC1)SCCS2 [Compound 21]	< 0.1	–
CC(C)(C)[C@H](NC(=O)c1cc(C(F)(F)F)cc(C(F)(F)F)c1)C(=O)N1CC2(C[C@H]1C(=O)N[C@H](C#N)C[C@@H]1CCNC1=O)SCCS2 [Compound 9]	1 to 10	–
N#C[C@H](C[C@@H]1CCNC1=O)NC(=O)[C@@H]1CC2(CN1C(=O)[C@@H](NC(=O)C(F)(F)F)C13CC4CC(CC(C4)C1)C3)SCCS2 [Compound 23]	< 0.1	–
Cc1cc(C)cc(C(=O)N[C@H](C(=O)N2CC3(C[C@H]2C(=O)N[C@H](C#N)C[C@@H]2CCNC2=O)SCCS3)C(C)(C)C)c1 [Compound 10]	1 to 10	–
CC(C)(C)[C@H](NC(=O)C(F)(F)F)C(=O)N1C[C@H](Sc2ccccc2)C[C@H]1C(=O)N[C@H](C#N)C[C@@H]1CCNC1=O [Compound 19]	1 to 10	–
CC(C)(C)[C@H](NC(=O)c1cccnc1)C(=O)N1CC2(C[C@H]1C(=O)N[C@H](C#N)C[C@@H]1CCNC1=O)SCCS2 [Compound 12]	1 to 10	–
CC(C)(C)[C@H](NC(=O)CC(F)(F)F)C(=O)N1CC2(C[C@H]1C(=O)N[C@H](C#N)C[C@@H]1CCNC1=O)SCCS2 [Compound 11]	0.1 to 1	–
CC(C)(C)[C@H](NC(=O)C(F)(F)F)C(=O)N1CC2(C[C@H]1C(=O)N[C@H](C#N)C[C@@H]1CCNC1=O)OCCO2 [Compound 18]	< 0.1	–
CC(C)(C)OC(=O)N[C@H](C(=O)N1CC2(C[C@H]1C(=O)N[C@H](C#N)C[C@@H]1CCNC1=O)SCCS2)C(C)(C)C [Compound 1]	< 0.1	–
CC(=O)N[C@H](C(=O)N1CC2(C[C@H]1C(=O)N[C@H](C#N)C[C@@H]1CCNC1=O)SCCS2)C(C)(C)C [Compound 3]	< 0.1	–
